Measurements as given in patent publication US20060172990A1, “Antibacterial agents” (priority 2002, published 2006).
Converted amounts (≈) assume the structure as drawn.

Experiments:
Assay type in all cases: cell-based
[1] = tested on: M. catarrhalis; assay: MIC by agar plate dilution against clinical isolate of M. catarrhalis; conditions: Moraxella catarrhalis, 1 strain (clinical isolate), Iso-Sensitest agar, 18 to 24 hr, 35° C.
Protocol: (§1) Minimal Inhibitory concentrations (MIC) of inhibitors against clinical isolates of S. pneumoniae, H. influenzae and M. catarrhalis obtained from the Public Health and Clinical Microbiology Laboratory, Addenbrooke's Hospital, Hills Road, Cambridge CB2 2QW, UK, were determined by a standard agar plate dilution method following recommendations in British Society for Antimicrobial Chemotherapy Working Party. 1991 “A guide to sensitivity testing British Society for Antimicrobial Chemomtherapy, London, United Kingdom”. Briefly Iso-Sensitest agar (pH 7.2: Oxoid, United Kingdom) was employed supplemented with 5% horse blood (Oxoid) and 20 μg of NAD (Sigma) per ml to support growth of fastidious bacteria. The inoculum used was approximately 10^4 colony forming units of each isolate contained in a volume of 1 μl. Plate were incubated 18 to 24 hr in air, -or for fastidious bacteria an atmosphere enriched with 4-6% carbon dioxide at 35° C. The MIC was determined as the lowest concentration of an antimicrobial tested that inhibited growth of the inoculum, disregarding a single persisting colony or faint haze caused by the inoculation.
(§2) The compounds of the Examples were are antibacterially active in the above assays, The following table states the MIC ranges of the tested compounds against 3 strains of S. pneumoniae, 2 strains of H. influenzae and 1 strain of M. catarrhalis.

[2] = tested on: H. influenzae; assay: MIC by agar plate dilution against clinical isolates of H. influenzae; conditions: Haemophilus influenzae, 2 strains (clinical isolates), Iso-Sensitest agar, 18 to 24 hr, 35° C., read-out: MIC range H. influenzae
Protocol: as §1, §2

[3] = tested on: S. pneumoniae; assay: MIC by agar plate dilution against clinical isolates of S. pneumoniae; conditions: 3 strains (clinical isolates), Iso-Sensitest agar, 18 to 24 hr, 35° C.
Protocol: as §1, §2

MIC [1] [µg/mL] | MIC [2] [µg/mL] | MIC range S. pneumoniae [3] [µg/mL] | Compound
0.5 (≈ 1.31 µM) | 8 (≈ 20.9 µM) | 4 to 16 | CC(C)N(CC(=O)N1CCCC1)NC(=O)[C@H](CC1CCCC1)CN(O)C=O [Example 2]
0.5 (≈ 1.4 µM) | 0.5 to 1 (≈ 1.4 to 2.81 µM) | – | CC(C)N(CC(=O)N(C)C)NC(=O)[C@H](CC1CCCC1)CN(O)C=O [Example 3, 2-{N′-[(2R)-Cyclopentylmethyl-3-(formyl-hydroxy-amino)-propionyl]-N-isopropyl-hydrazino}-N,N-dimethyl-acetamide]
0.5 (≈ 0.991 µM) | 32 (≈ 63.4 µM) | 1 to 2 | COc1cc2c(cc1OC)CN(C(=O)CN(NC(=O)[C@H](CC1CCCC1)CN(O)C=O)C(C)C)CC2 [Example 4, N-{3-Cyclopentyl-(2R)-[N′-[2-(6,7-dimethoxy-3,4-dihydro-1H-isoquinolin-2-yl)-2-oxo-ethyl]-N′-isopropyl-hydrazinocarbonyl}-propyl)-N-hydroxy-formamide]
1 (≈ 1.88 µM) | > 32 | 1 to 4 | CC(C)N(CC(=O)N1CCN(Cc2ccc3c(c2)OCO3)CC1)NC(=O)[C@H](CC1CCCC1)CN(O)C=O [Example 5, N-(2-{N′-[(2R)-(4-Benzo[1,3]dioxol-5-ylmethyl-piperazin-1-yl)-2-oxo-ethyl]-N′-isopropyl-hydrazinocarbonyl}-3-cyclopentylpropyl)-N-hydroxy formamide]
2 (≈ 4.93 µM) | 32 (≈ 78.9 µM) | – | CC(C)N(CC(=O)Nc1cccnc1)NC(=O)[C@H](CC1CCCC1)CN(O)C=O [Example 6]
2 (≈ 4.86 µM) | 16 to 32 (≈ 38.9 to 77.8 µM) | 16 to 32 | CC(C)N(CC(=O)Nc1nccs1)NC(=O)[C@H](CC1CCCC1)CN(O)C=O [Example 7, 2-{N′-[(2R)-Cyclopentylmethyl-3-(formyl-hydroxy-amino)-propionyl]-N-isopropyl-hydrazino}-N-thiazol-2-yl-acetamide]
2 (≈ 4.88 µM) | – | 8 to 16 | Cc1coc(NC(=O)CN(NC(=O)[C@H](CC2CCCC2)CN(O)C=O)C(C)C)n1 [Example 8, 2-{N′-[(2R)-Cyclopentylmethyl-3-(formyl-hydroxy-amino)-propionyl]-N-isopropyl-hydrazino}-N-(4-methyl-oxazol-2-yl)-acetamide]
2 (≈ 4.7 µM) | > 32 | 16 to 32 | Cc1csc(NC(=O)CN(NC(=O)[C@H](CC2CCCC2)CN(O)C=O)C(C)C)n1 [Example 9, 2-{N′-[(2R)-Cyclopentylmethyl-3-(formyl-hydroxy-amino)-propionyl]-N-isopropyl-hydrazino}-N-(4-methyl-thiazol-2-yl)-acetamide]
2 (≈ 4.33 µM) | > 32 | 1 to 4 | CC(C)N(CC(=O)Nc1nc2ccccc2s1)NC(=O)[C@H](CC1CCCC1)CN(O)C=O [Example 10, N-Benzothiazol-2-yl-2-{N′-[(2R)-cyclopentylmethyl-3-(formyl-hydroxy-amino)-propionyl]-N-isopropyl-hydrazino)acetamide]
